Assay [1] concerns K. pneumoniae ATCC 13883. In words: Adenosine triphosphate (ATP) test (BacTiter-Glo). Type of assay: cell-based, Klebsiella pneumoniae. The following applies: 1 h at 37° C. Here is the method:
The bacterial strains methicillin-sensitive S. aureus ATCC 29213, E. faecalis ATCC 29212, E. coli ATCC 25922 and K. pneumoniae ATCC 13883 were cultured in MHB at 37° C. 50 μL of Se NPs, Se NP-ε-PL or pure ε-PL in PBS solution was added into each well of 96-well microplates. 50 μL MHB with 2.5×10^6 cells/mL bacteria was then added into each well. After 1h incubation at 37° C., the 96-well microplates were transferred to room temperature for a further 30 min incubation period. 100 μL of BacTiter-Glo™ reagent (Promega, Australia) was added into each well, then mixed on an orbital shaker and incubated for 5 min. The luminescence was recorded using a microplate reader (PerkinElmer 1420 Multilabel Counter VICTOR3).
A standard curve was generated by adopting the following steps. 10-fold serial dilutions of ATP from 1 μM to 10 pM in 100 μL MHB were prepared. 100 μL of BacTiter-Glo™ reagent was added into each well, then mixed on an orbital shaker and incubated for 1 min. The luminescence was recorded using a microplate reader (PerkinElmer 1420 Multilabel Counter VICTOR3).

Assay [2] relates to Gram-negative bacteria. Description: Colony forming unit assay (bactericidal effect). The class given is cell-based. The method, then:
For the CFU measuring assay, 50 μL of different concentrations of Se NPs, Se NP-ε-PL or pure ε-PL in PBS solution was added into each well of 96-well microplates, then 50 μL MHB with 2.5×10^6 cells/mL bacteria were added into each well. After incubating the microplate at 37° C. for 90 min, the bacterial solutions were diluted 10^−1, 10^−2, 10^−3 and 10^−4 times, then 10 μL of each dilution was transferred onto agar plates with MHB. The agar plates were incubated overnight, before the bacterial colony forming units were observed and measured.

Assay [3] relates to methicillin-sensitive S. aureus (MSSA) ATCC 29213. Description: Membrane potential change test (BacLight, DiOC2(3)). The settings on record: 6.25 or 12.5 μg/ml. The class given is cell-based, Staphylococcus aureus. Here is the method:
Membrane potential change was measured using a BacLight Bacterial Membrane Potential Kit (Invitrogen). The bacterial strain methicillin-sensitive S. aureus (MSSA) ATCC 29213, E. faecalis ATCC 29212, E. coli ATCC 25922 were cultured in MHB at 37° C. 50 μL of different concentrations of Se NPs, Se NP-ε-PL or pure ε-PL in PBS solution was added into each well of 96-well microplates. 50 μL MHB with 2.5×10^6 cells/mL bacteria was then added into each well. 50 μL MHB with 2.5×10^6 cells/mL bacteria was added to 50 μL PBS to act as untreated control. Carbonyl cyanide 3-chlorophenylhydrazone (CCCP) was added to untreated control at a final concentration of 5 μM to act as fully depolarized control. 3,3′-Diethyloxacarbocyanine Iodide (DiOC2(3)) was added to all wells at a final concentration of […]. […] The untreated (polarized) and CCCP-treated (fully depolarized) controls were used to determine the percentage of depolarized cells. Two independent experiments were done for this test, and two technical replicates were adopted for each independent experiment.

In assay [4] the test system is Acinetobacter baumannii (A. baumannii) 2208 ATCC19606. Description: Bacterial growth inhibition test / MIC calculation. The class given is cell-based. The following applies: MHB, 37° C., growth curves, linear regression, mean ± s.d. The text has this:
(§1) The bacterial strains methicillin-sensitive Staphylococcus aureus (S. aureus) ATCC 29213, methicillin-resistant Staphylococcus aureus (MRSA) ATCC 43300, Enterococcus faecalis (E. faecalis) ATCC 29212, Escherichia coli (E. coli) ATCC 25922, Acinetobacter baumannii (A. baumannii) 2208 ATCC19606, Pseudomonas aeruginosa (P. aeruginosa) strain PAO1-LAC ATCC 47085, Klebsiella pneumoniae (K. pneumoniae) ATCC 13883 and multidrug-resistant K. pneumoniae (MDR), were obtained from the culture collection of the Oral Health Cooperative Research Centre, The Melbourne Dental School, University of Melbourne, Australia. Bacteria were cultured in Mueller Hinton Broth (MHB) at 37° C. 50 μL of suspensions with the desired concentrations of Se NPs, Se NP-ε-PL or pure ε-PL in PBS solution was added to each well of 96-well microplates, then 50 μL MHB with 2.5×10^6 bacteria/mL were added into each well. The plate was put into an iEMS microplate reader (Pathtech Pty Ltd, Melbourne, Australia) at a temperature of 37° C. to monitor bacterial growth by measuring the absorbance at wavelength of 630 nm for 24 h. Background absorbance values due to the Se NP solutions were subtracted from the measured absorbance values.
(§2) The absorbance values from bacteria growth curves at the time when the stationary phase starts (tsps) were taken and calculated as a percentage of the untreated control (Z=OD5/OD6×100%, where OD5 represents absorbance at tsps of experimental groups and OD6 represents the absorbance at tsps of the negative control group; all absorbance values had the culture medium background values subtracted). Concentration-inhibition curves were plotted with the percentages of absorbance, and linear regression analysis was adopted to determine the MIC at which Z becomes zero.

For assay [5], the system named is Klebsiella pneumoniae (K. pneumoniae) ATCC 13883. Description: Bacterial growth inhibition test / MIC calculation. The class given is cell-based. The settings on record: MHB, 37° C., growth curves, linear regression, mean ± s.d.
Source text: as §1, §2

For assay [6], the system named is Escherichia coli (E. coli) ATCC 25922. In words: Bacterial growth inhibition test / MIC calculation. The following applies: MHB, 37° C., growth curves, linear regression, mean ± s.d. The class given is cell-based.
Source text: as §1, §2

For assay [7], the system named is methicillin-resistant Staphylococcus aureus (MRSA) ATCC 43300. In words: Bacterial growth inhibition test / MIC calculation. The following applies: MHB, 37° C., growth curves, linear regression, mean ± s.d. Type of assay: cell-based.
Source text: as §1, §2

In assay [8] the test system is Enterococcus faecalis (E. faecalis) ATCC 29212. In words: Bacterial growth inhibition test / MIC calculation. Type of assay: cell-based. The following applies: MHB, 37° C., growth curves, linear regression, mean ± s.d.
Source text: as §1, §2

The test system of assay [9] is Pseudomonas aeruginosa (P. aeruginosa) strain PAO1-LAC ATCC 47085. Description: Bacterial growth inhibition test / MIC calculation. The class given is cell-based. The following applies: MHB, 37° C., growth curves, linear regression, mean ± s.d.
Source text: as §1, §2

Assay [10] deals with methicillin-sensitive Staphylococcus aureus (S. aureus) ATCC 29213. In words: Bacterial growth inhibition test / MIC calculation. The settings on record: MHB, 37° C., growth curves, linear regression, mean ± s.d. Type of assay: cell-based.
Source text: as §1, §2

As a reminder, the MIC is the smallest concentration in the dilution series that meets the test's criterion for growth inhibition. For the substance ε-poly-L-lysine [ε-PL], the ATP depletion entry in assay [1] was “higher ATP depletion effect than Se NPs”. Besides, the “bactericidal effect (CFU)” value in assay [2] is “high bactericidal efficacy”. The “depolarisation of cell membrane” value in assay [3] is listed as “depolarized cell membranes”. In addition, the MIC in [4] was 21.6 ± 7.0 µg/mL; in assay [5], 12.0 ± 0.6 µg/mL; in [6], 13.2 ± 0.5 µg/mL; in assay [7], 11.6 ± 2.0 µg/mL; in assay [8] it was 27.1 ± 2.2 µg/mL; in assay [9] it was 9.5 ± 3.6 µg/mL. The MIC in assay [10] is 7.5 ± 1.0 µg/mL.

The record behind these values is patent US20220339187A1, “ANTIMICROBIAL PEPTIDE-SELENIUM NANOPARTICLES” (The University of Melbourne, priority 2019, published 2022).
